From patent US8138220B2, “[2-(6-fluoro-1H-indol-3-ylsulfanyl)benzyl]methyl amine for the treatment of affective disorders” (H. Lundbeck A/S, priority 2006, dated 2012) come the findings set out here.

The structures appear in SMILES notation.

The nature of one data set: Solubility in water. In kind it is physicochemical. Conditions: well-defined 1:1 salts, in words.
In a further data set the test system is Male C57B1/6 mice. The data set can be described thus: Stress-induced hyperthermia. In kind it is in vivo, mouse. The following applies: chlordiazepoxide 10 mg/kg, one hour before. On the procedure: (§1) In all experiments, animals were maintained on a 12:12 light-dark cycle with lights on at 0600 h. Food and water were available ad libitum
The stress-induced hyperthermia (SIH) test is based upon the principle that, like other mammals, mice have a natural hyperthermic response to stress. In this paradigm, the stressor is having the rectal temperature taken. This physiological response is considered to reflect the anxiety level of the animal, and is attenuated by pretreatment with anxiolytic drugs such as benzodiazepines.
Male C57B1/6 mice (18-21 g) were housed 5/cage until 1 day before the experiment, at which time they were brought to the testing room and singly-housed. Testing was conducted over a two-day period from 9-12 am. Mice received vehicle, chlordiazepoxide (10 mg/kg), or 0.02, 0.08, or 0.32 mg/kg Test compound (s.c.). One hour later, core temperature was measured with a rectal probe (T1) and each animal was returned to its cage. Ten minutes later, a second reading was obtained (T2). The difference between the two readings (T2−T1) was calculated as the measure of stress-induced hyperthermia.

The test system of a further data set is Male Wistar rats. Description: Antimanic effect, amphetamine and chlordiazepoxide induced locomotor activity in rats. In kind it is in vivo, rat. The following applies: for induced locomotor activity: amphetamine 1.2 mg/kg + chlordiazepoxide 10.0 mg/kg; for baseline activity: tested doses. On the procedure:
Increased locomotor activity induced by an appropriate combination of amphetamine and chlordiazepoxide is a proposed animal model of mania. The induced locomotor activity can be reversed by Lithium.
(§2) In all experiments, animals were maintained on a 12:12 light-dark cycle with lights on at 06:00 h. Food and water was available ad libitum. Animals were taken to the experimental laboratory in the afternoon the day before the experiment was conducted. All drug doses are listed as mg salt pr. kg. Blood-samples were collected within 30 minutes after the testing was finalised.
Animals: Male Wistar rats weighing 160-175 g were supplied from Harlan, the Netherlands. The animals were housed 4 pr. cage in makrolon cages (20×35 cm) with one plastic house for enrichment. The rats had 5 days adaptation to the animal facility prior to the initiation of the experiment.
Equipment: Makrolon cages (20×35 cm) placed in a U-frame equipped longitudinally with 4 infrared light sources and photocells were used to record the locomotor activity of the animals. The light beams cross the cage 4 cm above the bottom of the cage. Recording of a motility count required interruption of adjacent light beams, thus avoiding counts induced by stationary movements of the rat. A thin layer of standard bedding material coved the bottom of the cage.
Chlordiazepoxide (10.0 mg/kg) was dissolved in 10% hydroxypropyl-beta-cyclodextrin and injected s.c. (5 ml/kg) immediately after the amphetamine injection.

The next data set has as its system Male NMRI mice. The data set can be described thus: Antimanic effects, sensitized amphetamine response in mice. It is filed as in vivo, mouse. The following applies: for induced locomotor activity: amphetamine-sensitised mice, amphetamine challenge 1.25 mg/kg; for baseline activity: tested doses, each alone. On the procedure:
as §2
Repeated intermittent administration of amphetamine causes development of a sensitised response to a subsequent amphetamine challenge. This phenomenon has been proposed to model the chronic and progressive nature of bipolar disorder.
Animals: Male NMRI mice weighing 19-21 g were supplied from Harlan, the Netherland's. The animals were housed 4 pr. cage in makrolon cages (20×35 cm) with two plastic houses and nesting material for enrichment. The animals had 5 days adaptation to the animal-facility prior to the initiation the experiment.
Equipment: Makrolon cages (20×35 cm) placed in quadrates equipped with 5×8 infrared light sources and photocells spaced by 4 cm were used to record the locomotor activity of the animals. The light beams cross the cage 1.8 cm above the bottom of the cage. Recording of a motility count required interruption of adjacent light beams, thus avoiding counts induced by stationary movements of the mice.
Experimental set-up: The animals were pre-treated with either amphetamine sulphate 2.50 mg/kg (10 ml/kg s.c.) or vehicle for 5 consecutive days. After 11+/−1 days withdrawal period the animals were injected with test-drug or vehicle injection. Lithium chloride was dissolved in distilled water and injected s.c. (6 ml/kg) in dose of 40 mg/kg (0.94 mEq/kg), 30 minutes before testing. Test compound ([2-(6-fluoro-1H-indol-3-ylsulfanyl)benzyl]methyl amine L-(+)-hydrogen tatrate) was dissolved in 10% hydroxypropyl-beta-cyclodextrin and injected s.c. in doses of 0.08 and 0.4 mg/kg 60 minutes before testing. Owing to Test compound's lower affinity to rodent 5HT2A receptor with respect to the human receptor, the tested doses of Test compound was combined with a dose of MDL 100907 ([R-(+)-a-(2,3-dimethoxyphenyl)-1-[2-(4-fluorophenylethyl)]-4-piperidinem ethanol]) that achieves full occupancy of this receptor. 30 minutes before testing the animals were placed in the activity boxes for habituation. After the habituation period the mice were injected with a low dose amphetamine challenge (1.25 mg/kg or saline, 10 ml/kg) and the locomotor activity were measured for 60 minutes. The mice were dosed after the average weight of 16 animals.

For another data set, the system named is Male BALB/cByJ mice. Description: Mouse marble burying. It is filed as in vivo. The following applies: mice, 0.625, 1.25 and 5 mg/kg s.c., 30 min before 30-minute test. On the procedure:
as §1
For rodents, burying functions as a defensive behavior, used to lessen the intensity of a threat or the animal's vulnerability to it. Researchers have investigated defensive burying behaviour using a variety of threatening objects such as electrified prods and unpleasant tasting foods and liquids. Benign objects such as marbles and food pellets also elicit burying behaviour. Mice probably bury harmless objects because they are novel, and are therefore perceived as threatening. Acute administration of both anxiolytic and antidepressant drugs reduce the number of marbles buried in this paradigm.
Male BALB/cByJ mice (22-28 g) were housed 5/cage. Two experiments were performed. Mice received vehicle or 0.625, 1.25, or 5 mg/kg (s.c.) Test compound (see example 12). 30 minutes after injection, animals were placed individually in cages containing 20 marbles (2 rows of 10) on top of 1.5 inches of Aspen bedding. After a 30-minute test period, mice were returned to their home cages, and the number of visible marbles (less than ⅔ covered with bedding) were counted and subtracted from 20 to give number of marbles buried.

For `CC(C)(O)C(=O)O` [2-hydroxy isobutyric acid], in the data set “Solubility in water”, the solubility entry is “relatively high solubility”.
On to `CNC1=Nc2ccc(Cl)cc2C(c2ccccc2)=[N+]([O-])C1` [CDP, chlordiazepoxide, reference compound], for which the “stress-induced hyperthermia (T2−T1)” value in the data set with Male C57B1/6 mice was “significantly reduced”.
For `CNCc1ccccc1Sc1c[nH]c2cc(F)ccc12.O=C(O)C(O)C(O)C(=O)O` [beta form of the L(+) hydrogen tartrate salt] [[2-(6-Fluoro-1H-indol-3-ylsulfanyl)-benzyl]-methyl-amine L-(+)-hydrogen tartrate], the “water absorbed when exposed to high relative humidity” value is given as “about 0.6%”.
In the case of `CNCc1ccccc1Sc1c[nH]c2cc(F)ccc12.O=C(O)C(O)C(O)C(=O)O` [alpha form of the L(+) hydrogen tartrate salt] [[2-(6-Fluoro-1H-indol-3-ylsulfanyl)-benzyl]-methyl-amine L-(+)-hydrogen tartrate], the “water absorbed when exposed to high relative humidity” value is under 0.1%.
Turning to `CNCc1ccccc1Sc1c[nH]c2cc(F)ccc12.O=C(O)C(O)C(O)C(=O)O` [Test compound, [2-(6-fluoro-1H-indol-3-ylsulfanyl)benzyl]methyl amine L-(+)-hydrogen tatrate], the induced locomotor activity result in the data set on Male Wistar rats (Test compound 0.4 mg/kg combined with MDL 100907 0.3 mg/kg) was “significant attenuation”; in the data set on Male Wistar rats (Test compound 0.4 mg/kg s.c. alone), “tendency to increase the locomotor activity induced activity, but not significantly”; in the data set with Male NMRI mice (Test compound 0.08 mg/kg and 0.4 mg/kg s.c. alone) it was “no effect”. For the same compound, the baseline activity entry with Male Wistar rats is recorded as “no effect”; in the data set with Male NMRI mice (mice), “no significant effect”. In the data set on Male NMRI mice (mice, Test compound 0.08 and 0.4 mg/kg combined with MDL 100907 0.3 mg/kg), the “baseline activity in saline pre-treated animals” value was “significantly lowered”. Moreover, the “numbers of marbles buried” value in the data set on Male BALB/cByJ mice was “significantly and equivalently reduced”.
Take `COc1cccc([C@H](O)C2CCN(CCc3ccc(F)cc3)CC2)c1OC` [MDL 100907, [R-(+)-a-(2,3-dimethoxyphenyl)-1-[2-(4-fluorophenylethyl)]-4-piperidinemethanol], reference compound]: the induced locomotor activity result was “significantly reversed” in the data set on Male Wistar rats (MDL 100907 0.3 mg/kg) and “significantly decreased” in the data set with Male NMRI mice (MDL 100907 0.3 mg/kg). In addition, the baseline activity result is given as “no effect” with Male Wistar rats and “no significant effect” in the data set with Male NMRI mice (mice).
